From patent US20220056023A1, “PREPARATION AND APPLICATION OF CLASS OF N-CONTAINING HETEROCYCLIC COMPOUNDS HAVING IMMUNOREGULATORY FUNCTION” (SHANGHAI ENNOVABIO PHARMACEUTICALS CO., LTD., priority 2018, published 2022)

What follows are molecules tested against T1, PD-1/PD-L1 (Homo sapiens, UniProt Q9NZQ7) (assay: PD-1/PD-L1 homogeneous time-resolved fluorescence (HTRF) binding assay). Settings: Tag 1-PD-L1 / Tag 2-PD-1, Cisbio kit.
T1 construct: purchased Cisbio 63ADK000CPDEC
T1 sequence (Q9NZQ7 19-238 limits assumed): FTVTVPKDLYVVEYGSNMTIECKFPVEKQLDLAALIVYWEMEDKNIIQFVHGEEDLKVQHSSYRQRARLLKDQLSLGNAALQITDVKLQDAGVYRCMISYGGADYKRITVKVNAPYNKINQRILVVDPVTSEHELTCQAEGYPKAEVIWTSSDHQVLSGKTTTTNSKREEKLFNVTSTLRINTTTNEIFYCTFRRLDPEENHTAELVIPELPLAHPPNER
Excerpt: The PD-1/PD-L1 homogeneous time-resolved fluorescence method is used to detect the binding ability of the compound with PD-L1.
PD-1/PD-L1 binding assay kit (Cisbio, Cat #63ADK000CPDEC) was chosen, which contains two proteins Tag 1-PD-L1 and Tag 2-PD-1, and two antibodies Anti-Tag1-Eu^3+ and Anti-Tag2-XL 665. The principle of detection was: Anti-tag1-Eu^3+ was used as the donor of HTRF, and Anti-Tag2-XL 665 was used as the acceptor of HTRF. When Tag 1-PD-L1 interacts with Tag 2-PD-1, the added HTRF donor and the acceptor are close to each other. After the donor has received the excitation energy, part of the energy was transferred to the acceptor, thus generating 665 nm emission light. […] The inhibitory effect of the compound can be determined by comparing the ratio of 665 nm/620 nm. Tag 1-PD-L1 was diluted with Diluent buffer (cat #62DLBDDF) to a working concentration of 10 nM, Tag 2-PD-1 was diluted with Diluent buffer to a working concentration of 500 nM, Anti-Tag1-Eu^3+ was diluted with detection buffer (cat #62DB1FDG) at a ratio of 1:100, Anti-Tag2-XL 665 was diluted with detection buffer at a ratio of 1:20, and the compound to be detected was diluted with diluent buffer to a final concentration of 2×. Compound (2 μL) was added to each well of a 384-well plate, then Tag 1-PD-L1 (4 μL) and Tag 2-PD-1 (4 μL) were added successively. The mixture was incubated at room temperature for 15 minutes. Then Anti-Tag1-Eu^3+ (5 μL) and Anti-Tag2-XL 665 (5 μL) were added, and the mixture was incubated overnight at room temperature. BioTek Synergy™ Neo2 multifunctional microplate reader was used to detect so as to provide the 665 nm/620 nm ratio. PrismGraphd 5.02 was used to fit the IC50 curve.
OCCNCc1cnc2nn(-c3cccc(-c4ccccc4)c3Cl)cc2c1 [Compound 1, 2-(((2-(2-Chloro-[1,1′-biphenyl]-3-yl)-2H-pyrazolo[3,4-b]pyridin-5-yl)methyl)amino) ethane-1-ol] was tested, and the IC50 was 100 to 1000 nM. Work on COc1nc(CNCCO)nc2c1CN(c1cccc(-c3ccccc3)c1Cl)C2 [Compound 5, 2-(((6-(2-Chloro-[1,1′-biphenyl]-3-yl)-4-methoxy-6,7-dihydro-5H-pyrrolo[3,4-d)pyrimidin-2-yl)methyl)amino)ethane-1-ol] yielded an IC50 of under 100 nM. COc1cc(CNCCO)cc2c1CN(c1cccc(-c3ccccc3)c1Cl)C2 [Compound 10, 2-(((2-(2-Chloro-[1,1′-biphenyl]-3-yl)-7-methoxyisoindolin-5-yl)methyl)amino)ethane-1-ol] gave an IC50 of under 100 nM. COc1nc(CN2CCCC[C@H]2C(=O)O)nc2c1CN(c1cccc(-c3ccccc3)c1Cl)C2 [Compound 6, (S)-1-((6-(2-Chloro-[1,1′-biphenyl]-3-yl)-4-methoxy-6,7-dihydro-5H-pyrrolo[3,4-d)pyrimidin-2-yl)methyl)piperidine-2-carboxylic acid] was tested, and the IC50 was under 100 nM. For Cc1c(-c2ccccc2)cccc1-n1cc2cc(CNCCO)cc(C#N)c2n1 [Compound 9, (((2-Hydroxyethyl)amino)methyl)-2-(2-methyl-[1,1′-biphenyl]-3-yl)-2H-indazole-7-carbonitrile], the IC50 was 100 to 1000 nM.
